Test system: human abdominal skin
Test: In vitro human skin permeation and skin disposition, flow-through diffusion cells (Example 1)
Type: in vitro ADME
Experimental: Flow through diffusion cells were used for the permeation studies. HEPES-buffered Hanks' balanced salts containing 40% (polyethylene glycol) PEG 400 with gentamicin was used for the receiver compartment. Donor solution was comprised of either 100% propylene glycol (PG) solution or a rubbed in gel formulation. […] Drug accumulation in the skin after a 24 or 36 h diffusion experiment was determined as μmol/g wet tissue weight.
The skin samples used in the following experiments were obtained from abdominal reduction surgery and dermatomed to a thickness of approximately 200 μm. The skin samples used herein were frozen at −20° C. for less than six months.
1 L of receiver fluid was prepared by measuring 1 L of nanopure water into a graduated cylinder. 90% of the water was added to an Erlenmeyer flask. Hanks' salts (1 bottle) were added to the water along with 5.96 g of HEPES and 0.35 g of sodium bicarbonate. The pH of the solution was adjusted with 1 N sodium hydroxide solution to pH 7.4. The remaining water was added and the receiver fluid was filtered through a 0.2μ filter (Millipore, Billerica, Mass.). 50 mg of gentamicin was added to the filtered receiver fluid and 400 mL of the receiver fluid was removed and replaced with 400 mL of PEG 400.
Two different formulations were used for charging the donor compartment. Drugs were made up in either 100% PG or a gel formulation. For the PG solution, approximately 50-120 mg of the appropriate drug was weighed into a glass silanized culture tube. The gel formulation resulted from the mixing of absolute ethanol, nanopure water, IPM, Carbopol® 980, 0.1 N aqueous sodium hydroxide solution and the respective drug.
Dermatomed skin harvested from abdominoplasty, stored at −20° C., was used for the experiments. A PermeGear flow-through (In-Line, Riegelsville, Pa.) diffusion cell system was used for the skin permeation studies.
Diffusion cells were kept at 32° C. with a circulating water bath. Human epidermal skin was arranged in the diffusion cell with stratum corneum (upper layer of skin) facing the donor compartment. Permeation area of the skin was 0.95 cm^2. Data was collected from a human skin donor with three to four diffusion cells per treatment.
Receiver solution was HEPES-buffered Hanks' balanced salts with gentamicin containing 40% PEG 400 at a pH of 7.4 and flow rate was adjusted to 0.8 mL/h. Each cell was charged with 0.050 mL of the respective drug formulation (donor solution) or with 0.035 mL of gel formulation which was rubbed into the skin for 15 sec with a Teflon coated rod. The formulation was applied to ensure complete coverage. Diffusion cells were covered with a cap for the duration of the study.
Samples were collected into scintillation vials in 3 h increments for either 24 h or 36 h. All the samples were stored at 4° C. until extracted. An aliquot (0.5 mL) of the diffusion sample was placed into a silanized HPLC vial and 0.5 mL of acetonitrile was added to the sample, capped and vortexed.
At the end of the experiment, the skin tissue was removed from the diffusion cell, rinsed with nanopure water, and blotted dry with a paper towel. The skin was tape stripped twice using book tape (Scotch™, 3M, St. Paul, Minn.) to remove drug formulation adhering to the tissue surface. The area of skin in contact with the drug was cut out, chopped up and placed in a pre-weighed scintillation vial. Ten mL of acetonitrile was added to the vial and drug was extracted from the skin by shaking at room temperature overnight. The following day a 0.1 mL aliquot was removed and diluted with an additional 0.9 mL of acetonitrile. The diluted sample was added to the silanized HPLC vial for analysis.
At the end of the experiment, a 0.01 mL aliquot of the PG donor solution was removed and added to a scintillation vial containing 10 mL of acetonitrile. The vials were vortexed and then sonicated for 15 min. An aliquot of 1 mL was removed and transferred into a silanized HPLC vial for analysis.

[1] = Table 11, in gel formulation, CBD from applied prodrug
[2] = Table 11, in gel formulation, as applied compound (CBD or intact prodrug)
[3] = Table 11, in gel formulation, prodrug applied, as total CBD equivalents (cannabidiol and/or prodrug)
[4] = Table 12, in gel formulation, CBD from applied prodrug
[5] = Table 12, in gel formulation, as applied compound (CBD or intact prodrug)
[6] = Table 12, in gel formulation, prodrug applied, as total CBD equivalents
[7] = Table 13, in propylene glycol, 36 h, CBD from applied prodrug
[8] = Table 13, in propylene glycol, 36 h, as applied compound (CBD or intact prodrug)
[9] = Table 13, in propylene glycol, 36 h, prodrug applied, as total CBD equivalents
[10] = Table 13, in propylene glycol, CBD from applied prodrug
[11] = Table 13, in propylene glycol, as applied compound (CBD or intact prodrug)
[12] = Table 13, in propylene glycol, prodrug applied, as total CBD equivalents
[13] = Table 3, in propylene glycol, prodrug applied
[14] = Table 3, in propylene glycol, CBD high conc.
[15] = Table 3, in propylene glycol, CBD low conc.
[16] = Table 4, in propylene glycol, CBD high conc.
[17] = Table 4, in propylene glycol, CBD low conc.
[18] = Table 5, in propylene glycol, CBD high conc.
[19] = Table 5, in propylene glycol, CBD low conc.
[20] = Table 14, in propylene glycol, as applied compound (CBD or intact prodrug)

What does the source list for `C=C(C)C1CCC(C)=CC1c1c(OC(=O)CN(C)C)cc(CCCCC)cc1OC(=O)CN(C)C` (stereo not drawn) [ALL00105, CBD bis(N,N-dimethylglycinate)]?
form in which the prodrug permeated through the human skin (Example 1): permeated primarily as intact prodrug; 24 h cumulative amt [1]: 4.1 ± 1.5 nmol; 24 h skin conc [1]: 2.5 ± 2.1 µmol/g; Flux [1]: 0.3 ± 0.02 nmol/cm^2/h; Lag time [1]: 0.8 ± 0.4 h; 24 h cumulative amt [2]: 66.8 ± 9.0 nmol; 24 h skin conc [2]: 82.1 ± 58.9 µmol/g; Flux [2]: 2.9 ± 0.5 nmol/cm^2/h; Lag time [2]: 7.9 ± 3.3 h; 24 h cumulative amt [3]: 76.5 ± 7.9 nmol; 24 h skin conc [3]: 84.5 ± 60.7 µmol/g; Flux [3]: 3.3 ± 0.7 nmol/cm^2/h; Lag time [3]: 1.2 ± 0.1 h; 24 h cumulative amt [4]: 1.1 ± 0.02 nmol; 24 h skin conc [4]: 2.2 ± 2.1 µmol/g; Flux [4]: 0.06 ± 0.02 nmol/cm^2/h; Lag time [4]: 1.0 ± 0.6 h; 24 h cumulative amt [5]: 7.3 ± 0.03 nmol; 24 h skin conc [5]: 27.5 ± 7.4 µmol/g; Flux [5]: 0.37 ± 0.01 nmol/cm^2/h; Lag time [5]: 3.9 ± 4.8 h; 24 h cumulative amt [6]: 8.9 ± 0.04 nmol; 24 h skin conc [6]: 29.7 ± 9.1 µmol/g; Flux [6]: 0.41 ± 0.03 nmol/cm^2/h; Lag time [6]: 0.9 ± 1.2 h; Flux [7]: 1.4 ± 0.2 nmol/cm^2/h; Lag time [7]: 12.6 ± 1.3 h; Flux [8]: 0.5 ± 0.01 nmol/cm^2/h; Lag time [8]: 7.5 ± 0.0 h; Flux [9]: 1.9 ± 0.2 nmol/cm^2/h; Lag time [9]: 10.0 ± 2.9 h; 36 h cumulative amt [10]: 32.6 ± 3.0 nmol; 36 h skin conc. [10]: 2.8 ± 3.8 µmol/g; 36 h cumulative amt [11]: 14.7 ± 3.2 nmol; 36 h skin conc. [11]: 8.8 ± 0.0 µmol/g; 36 h cumulative amt [12]: 47.2 ± 0.1 nmol; 36 h skin conc. [12]: 7.2 ± 10.1 µmol/g; cumulative amount of total cannabidiol equivalents delivered, compared to cannabidiol (gel formulation): 3.1-5.9 fold; decrease of lag time of total cannabidiol compared to the parent drug (gel formulation studies): 7 to 8 h; mean flux enhancement (mean between the two gel formulation experiments): 2.5; enhancement with the propylene glycol donor solution (propylene glycol donor solution): did not show any enhancement

How did the “flux enhancement (in words)” value (Example 1) turn out when `C=C(C)[C@@H]1CCC(C)=C[C@H]1c1c(OC(=O)CCN(C)C)cc(CCCCC)cc1OC(=O)CCN(C)C` [ALL00101, CBD bis(3-(dimethylamino)propionate)] was run?
The value was “No flux enhancement”.

What about the “form in which the prodrug permeated through the human skin” value (Example 1) of the same compound?
Its value is “permeated through the human skin as cannabidiol”.

What about the “found in the skin disposition (tissue) samples” value (Example 1) of the same compound?
Its value is “Both cannabidiol and intact prodrug were found”.

What about the “intact prodrug in the diffusion samples (receiver samples)” value (Example 1) of the same compound?
The value was “No intact prodrug was found”.

And the “total cannabidiol in the skin compared to cannabidiol” value (Example 1)?
Its value is “higher”.

What about the “24 h cumulative amt” value [13] of the same compound?
The value was 11.0 ± 0.1 nmol.

And the Flux [13]?
Its Flux is 1.0 ± 0.4 nmol/cm^2/h.

And the Lag time [13]?
Its Lag time is 11.7 ± 5.1 h.

And the “24 h skin conc” value (Table 3, in propylene glycol, prodrug applied, found in skin as CBD)?
Its value is 17.4 ± 4.3 (CBD) μmol/g.

What about the “24 h skin conc” value (Table 3, in propylene glycol, prodrug applied, found in skin as PD (prodrug)) of the same compound?
The value was 29.2 ± 7.6 (PD) μmol/g.

`C=C(C)[C@@H]1CCC(C)=C[C@H]1c1c(O)cc(CCCCC)cc1O` [cannabidiol, reference compound] was tested. Which “24 h cumulative amt” value (Table 2, in propylene glycol) did it give?
Its value is 222.7 ± 74.0 nmol.

What about the “24 h skin conc” value (Table 2, in propylene glycol) of the same compound?
Its value is 190.8 ± 10.7 µmol/g.

And the Flux (Table 2, in propylene glycol)?
Its Flux is 10.4 ± 2.0 nmol/cm^2/h.

What about the “24 h cumulative amt” value [14] of the same compound?
The value was 89.2 ± 15.0 nmol.

And the “24 h skin conc” value [14]?
Its value is 223.1 ± 75.3 µmol/g.

And the Flux [14]?
The Flux was 7.8 ± 1.1 nmol/cm^2/h.

What about the “24 h cumulative amt” value [15] of the same compound?
The value was 50.1 ± 28.1 nmol.

What about the “24 h skin conc” value [15] of the same compound?
Its value is 26.3 ± 14.1 µmol/g.

What about the Flux [15] of the same compound?
The Flux was 4.5 ± 2.5 nmol/cm^2/h.

And the “24 h cumulative amt” value [16]?
Its value is 110.4 ± 18.9 nmol.

What about the “24 h skin conc” value [16] of the same compound?
The value was 167.6 ± 76.7 µmol/g.

What about the Flux [16] of the same compound?
The Flux was 8.5 ± 2.4 nmol/cm^2/h.

What about the “24 h cumulative amt” value [17] of the same compound?
The value was 63.5 ± 47.5 nmol.

What about the “24 h skin conc” value [17] of the same compound?
Its value is 112.5 ± 61.8 µmol/g.

And the Flux [17]?
Its Flux is 6.0 ± 3.3 nmol/cm^2/h.

And the “24 h cumulative amt” value [18]?
The value was 42.4 ± 10.7 nmol.

And the “24 h skin conc” value [18]?
The value was 104.9 ± 51.0 µmol/g.

What about the Flux [18] of the same compound?
Its Flux is 3.9 ± 0.0 nmol/cm^2/h.

What about the “24 h cumulative amt” value [19] of the same compound?
Its value is 56.9 ± 39.4 nmol.

What about the “24 h skin conc” value [19] of the same compound?
The value was 75.3 ± 33.1 µmol/g.

What about the Flux [19] of the same compound?
The Flux was 5.7 ± 3.5 nmol/cm^2/h.

And the “24 h cumulative amt” value (Table 6, in propylene glycol)?
The value was 27.5 ± 32.5 nmol.

What about the “24 h skin conc” value (Table 6, in propylene glycol) of the same compound?
The value was 49.2 ± 15.2 µmol/g.

What about the Flux (Table 6, in propylene glycol) of the same compound?
Its Flux is 4.3 ± 2.4 nmol/cm^2/h.

What about the “36 h cumulative amt” value (Table 7, in propylene glycol) of the same compound?
The value was 15.7 ± 5.4 nmol.

And the “36 h skin conc.” value (Table 7, in propylene glycol)?
The value was 44.1 ± 15.5 µmol/g.

And the Flux (Table 7, in propylene glycol, 36 h experiment)?
The Flux was 1.0 ± 0.7 nmol/cm^2/h.

And the “36 h cumulative amt” value (Table 8, in gel formulation)?
The value was 52.0 ± 42.7 nmol.

What about the “36 h skin conc.” value (Table 8, in gel formulation) of the same compound?
The value was 28.4 ± 8.8 µmol/g.

And the Flux (Table 8, in gel formulation, 36 h experiment)?
Its Flux is 2.0 ± 2.3 nmol/cm^2/h.

What about the “24 h cumulative amt” value (Table 9, in gel formulation) of the same compound?
The value was 1.9 ± 1.3 nmol.

What about the Flux (Table 9, in gel formulation) of the same compound?
The Flux was 0.10 ± 0.06 nmol/cm^2/h.

And the “24 h skin conc” value (Table 9, in gel formulation, as applied compound (CBD, or PD = intact prodrug))?
The value was 24.6 ± 3.6 µmol/g.

And the “24 h cumulative amt” value (Table 10, in propylene glycol)?
The value was 164.5 ± 34.1 nmol.

What about the Flux (Table 10, in propylene glycol) of the same compound?
Its Flux is 8.0 ± 0.9 nmol/cm^2/h.

And the “24 h skin conc” value (Table 10, in propylene glycol, as applied compound (CBD, or PD = intact prodrug))?
The value was 85.8 ± 24.3 µmol/g.

And the “24 h cumulative amt” value [2]?
Its value is 13.3 ± 2.6 nmol.

And the “24 h skin conc” value [2]?
Its value is 29.0 ± 10.2 µmol/g.

What about the Flux [2] of the same compound?
Its Flux is 1.0 ± 0.1 nmol/cm^2/h.

What about the “24 h cumulative amt” value [5] of the same compound?
The value was 2.9 ± 0.1 nmol.

What about the “24 h skin conc” value [5] of the same compound?
The value was 88.4 ± 36.3 µmol/g.

What about the Flux [5] of the same compound?
The Flux was 0.24 ± 0.003 nmol/cm^2/h.

What about the Flux [8] of the same compound?
The Flux was 4.2 ± 0.0 nmol/cm^2/h.

And the “36 h cumulative amt” value [11]?
The value was 94.5 ± 0.0 nmol.

What about the “36 h skin conc.” value [11] of the same compound?
Its value is 39.4 ± 0.0 µmol/g.

And the Flux (Table 14, in propylene glycol, 36 h, as applied compound (CBD or intact prodrug))?
Its Flux is 8.4 ± 2.4 nmol/cm^2/h.

What about the “36 h cumulative amt” value [20] of the same compound?
The value was 93.6 ± 38.0 nmol.

And the “36 h skin conc.” value [20]?
The value was 92.9 ± 4.8 µmol/g.

Reference: patent US8293786B2 (Alltranz Inc., priority 2007, dated 2012)
